Results as given in PMC11045757, “Group 3 medulloblastoma transcriptional networks collapse under domain specific EP300/CBP inhibition” (Nature Communications, 2024).
Values joined by “and” are separate entries in the source; they are usually repeats but may differ in a detail not shown here. Equal values may be shown once. Read-outs that look alike come from different tables or passages of the source.

Columns and labels:
[1] = tested on: HDMB03 (HDMBO3) group 3 medulloblastoma cells; test: CellTiter-Glo dose-response growth assay; type: cell-based; conditions: HDMBO3 G3MB cell growth; read-out: IC50 (nM) HDMBO3
Procedure: CellTiter-Glo assay was performed as per the manufacturer’s instructions, at the noted timepoint after compound treatment or plating. For Kelly, TE617T, RhJT, NCIH2122, NCIH650 and 143B, 500 cells were plated in normal growth media per well in a 384-well plate (Corning). HDMB03 and MB002 cells were plated in growth media at 500 cells/well in a 384-well plate. […] Cells were incubated for the noted timepoints prior to performing CellTiter-Glo assay as per the manufacturer’s instructions, and reading plates on an Envision 2104 microplate reader.

BRD4-BD1 (BRD4-1) = target: T1, BRD4-BD1 (BRD4-1) (Homo sapiens, UniProt O60885); test: Differential scanning fluorimetry (DSF) thermal shift; type: binding; conditions: DSF; for ∆Tm (°C) BRD4-1: 5 μM protein, 100 μM compound, three independent experiments, average ± SD
T1 construct: BRD4-BD1 (residues 44-168); 6xHis (cleaved yes); host or cells: E. coli BL21 (DE3) RIL
Procedure: (§1) At OD600 of 0.6, the culture was cooled down to 18 °C and induced with 0.1 mM IPTG. After 18 h growth, the culture was harvested by centrifugation at 6000 × g for 25 min and stored at -80 °C. Harvested cell pellets were re-suspended in 50 mM Na/K phosphate buffer (pH 7.4) containing 100 mM NaCl, 40 mM imidazole, 0.01% w/v lysozyme and 0.01% v/v Triton X-100 at 4 °C for 1 h, subjected to sonication and the lysate was clarified by centrifugation (30,000 × g for 45 min at 4 °C). Proteins were purified by FPLC at 4 °C using columns and chromatography materials from GE Healthcare. […] Proteins were purified to homogeneity by size exclusion chromatography using Superdex 75 equilibrated with elution buffer (50 mM HEPES pH 7.5, 100 mM NaCl, 2 mM DTT). All BRDs eluted as monomeric protein and were of crystallization grade quality (>95% purity as judged by SDS-PAGE). Pool fractions were combined, concentrated to 10–12 mg/ml, and aliquots were flash-frozen in liquid N2 and stored at −80 °C.
(§2) DSF experiments were performed with an Applied Biosystem StepOnePlus real-time PCR system (Thermo Fisher Scientific) using 96-well format plates, assayed in quadruplicate. For thermal shift determination, 5 μM protein was mixed with 100 μM compound in 50 mM HEPES, pH 7.5, 150 mM NaCl, 2 mM DTT, 2% DMSO, 5X SYPRO Orange (Thermo Fisher Scientific) in 20 μL reaction volumes. Reaction mixtures were heated from 25 to 95 °C at 1 °C/min with fluorescence readings every 0.5 °C at 610 nm. The observed thermal shift (ΔTm) was recorded as the difference between the Tm of sample and DMSO reference wells.

EP300 bromodomain = target: T2, EP300 bromodomain (Homo sapiens, UniProt Q09472); test: as above; type: binding; conditions: DSF
T2 construct: 6xHis (cleaved yes); host or cells: E. coli BL21 (DE3) RIL
T2 sequence (Q09472 1048-1161): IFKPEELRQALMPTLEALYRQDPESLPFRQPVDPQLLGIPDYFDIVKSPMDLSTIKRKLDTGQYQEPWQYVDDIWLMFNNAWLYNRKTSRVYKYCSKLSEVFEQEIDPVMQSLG
Procedure: as §1, §2

CBP bromodomain [2] = target: T3, CBP bromodomain (Homo sapiens, UniProt Q92793); test: as above; type: binding; conditions: for ∆Tm (°C) CBP / ΔTm (°C) CBP: DSF; for ∆Tm (°C) CBP: 5 μM protein, 100 μM compound, three independent experiments, average ± SD
T3 construct: CBP (residues 1081-1197); 6xHis (cleaved yes); host or cells: E. coli BL21 (DE3) RIL
Procedure: as §1, with “After” for “At OD600 of 0.6, the culture was cooled down to 18 °C and induced with 0.1 mM IPTG. After”, “All BRDs eluted as monomeric protein and were of crystallization grade quality (>95% purity as judged by SDS-PAGE).” left out
(§3) DSF experiments were performed with an Applied Biosystem StepOnePlus real-time PCR system (Thermo Fisher Scientific) using 96-well format plates, assayed in quadruplicate. For thermal shift determination, 5 μM protein was mixed with 100 μM compound in 50 mM HEPES, pH 7.5, 150 mM NaCl, 2 mM DTT, 2% DMSO, 5X SYPRO Orange (Thermo Fisher Scientific) in 20 μL reaction volumes.

CBP bromodomain [3] = test: as above; type: binding; conditions: ΔTm (CBP)/ΔTm(BRD4)
Procedure: as §1, with “After” for “At OD600 of 0.6, the culture was cooled down to 18 °C and induced with 0.1 mM IPTG. After”, “All BRDs eluted as monomeric protein and were of crystallization grade quality (>95% purity as judged by SDS-PAGE).” left out
as §3

[4] = target: GFP-tagged CBP bromodomain (Homo sapiens, UniProt Q92793); test: Microscale thermophoresis (MST); type: binding; conditions: for Response (Dose Response Curve): MST raw response
Procedure: MST experiments were performed in a Monolith NT.115 Pico instrument (NanoTemper Technologies) following published procedures. […] MST traces were recorded using standard parameters: 5 s MST power off, 30 s MST power on and 5 s MST power off. Measurements were taken at -1-0 s (cold region) and 10 s (hot region) and data were analyzed using the NTAnalysis software.

GFP-tagged CBP bromodomain, sequence (Q92793 1085-1192 limits assumed): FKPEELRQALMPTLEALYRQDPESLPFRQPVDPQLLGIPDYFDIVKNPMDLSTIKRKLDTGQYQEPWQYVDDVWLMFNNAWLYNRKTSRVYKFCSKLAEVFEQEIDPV
T3 sequence (Q92793 1081-1197): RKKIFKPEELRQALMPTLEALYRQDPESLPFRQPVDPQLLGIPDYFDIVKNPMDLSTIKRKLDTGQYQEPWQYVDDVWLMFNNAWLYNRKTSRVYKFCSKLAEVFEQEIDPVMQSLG

IC50 [1]: 156 ± 63 nM
∆Tm (°C) BRD4-1 (BRD4-BD1 (BRD4-1)): 5.6 ± 0.18 °C
∆Tm (°C) BRD4-1 (BRD4-BD1 (BRD4-1); listed as iCBP-1): 5.6 °C
ΔTm (°C) BRD4-BD1 (BRD4-BD1 (BRD4-1); Figure 3A, BRD4-BD1): 5.6 °C
∆Tm (°C) EP300 (EP300 bromodomain; 5 μM protein, 100 μM compound, three independent experiments, average ± SD): 15.2 ± 0.43 °C
ΔTm (°C) EP300 (EP300 bromodomain; Figure 3B, EP300): 15.2 °C
∆Tm (°C) CBP (CBP bromodomain [2]): 15.7 ± 0.13 °C
∆Tm (°C) CBP (CBP bromodomain [2]; listed as iCBP-1): 15.7 °C
ΔTm (°C) CBP (CBP bromodomain [2]; Figure 3A, CBP bromodomain): 15.7 °C
ΔTm (°C) CBP (CBP bromodomain [2]; Figure 3B, CBP): 15.7 °C
DSF ΔTm (°C) (CBP bromodomain [2]; Figure 3C, DSF (values equal CBP column)): 15.7 °C
Response (Dose Response Curve) ([4]; Dose 7.6294e-11, single replicate run, listed as iCBP-1): 853.223 and 857.66 and 855.66
Response (Dose Response Curve) ([4]; Dose 1.52588e-10, single replicate run, listed as iCBP-1): 855.736 and 856.23 and 855.826
Response (Dose Response Curve) ([4]; Dose 3.05176e-10, single replicate run, listed as iCBP-1): 853.445 and 855.178 and 855.494
Response (Dose Response Curve) ([4]; Dose 6.10352e-10, single replicate run, listed as iCBP-1): 856.427 and 856.757 and 853.917
Response (Dose Response Curve) ([4]; Dose 1.2207e-9, single replicate run, listed as iCBP-1): 856.018 and 857.281 and 855.418
Response (Dose Response Curve) ([4]; Dose 2.44141e-9, single replicate run, listed as iCBP-1): 854.643 and 857.895 and 854.619
Response (Dose Response Curve) ([4]; Dose 4.88281e-9, single replicate run, listed as iCBP-1): 855.403 and 855.962 and 856.044
Response (Dose Response Curve) ([4]; Dose 9.76563e-9, single replicate run, listed as iCBP-1): 854.71 and 855.519 and 854.572
Response (Dose Response Curve) ([4]; Dose 1.95313e-8, single replicate run, listed as iCBP-1): 854.478 and 856.32 and 852.68
Response (Dose Response Curve) ([4]; Dose 3.90625e-8, single replicate run, listed as iCBP-1): 853.805 and 853.804 and 852.557
Response (Dose Response Curve) ([4]; Dose 7.8125e-8, single replicate run, listed as iCBP-1): 851.041 and 853.265 and 851.047
Response (Dose Response Curve) ([4]; Dose 1.5625e-7, single replicate run, listed as iCBP-1): 849.783 and 852.179 and 850.016
Response (Dose Response Curve) ([4]; Dose 3.125e-7, single replicate run, listed as iCBP-1): 847.514 and 851.349 and 849.816
Response (Dose Response Curve) ([4]; Dose 6.25e-7, single replicate run, listed as iCBP-1): 850.56 and 852.488 and 847.121
Response (Dose Response Curve) ([4]; Dose 1.25e-6, single replicate run, listed as iCBP-1): 851.062 and 851.994 and 849.472
Response (Dose Response Curve) ([4]; Dose 2.5e-6, single replicate run, listed as iCBP-1): 852.183 and 853.073 and 851.642
Kd ([4]; MST, single replicate run, target clGFP-CBPBRD, TargetConcentration 5e-8, MST-Power Medium, unit inferred, listed as iCBP-1, read-out: Kd (Fit Results, Fit Model: Kd)): 11.6 nM and 7.49 nM and 11.5 nM
Bound (Fit Results) ([4]; fitted MST response of bound state, single replicate run, target clGFP-CBPBRD 5e-8, listed as iCBP-1): 850.224 and 852.177 and 849.456
Unbound (Fit Results) ([4]; fitted MST response of unbound state, single replicate run, target clGFP-CBPBRD 5e-8, listed as iCBP-1): 855.236 and 856.83 and 855.351
Kd ([4]; three independent MST experiments, average ± SD, read-out: Kd (nM) CBP): 12.1 ± 4.9 nM
Compound: COC1CCC(n2c(C3CCCC(=O)N3c3cccc(C(F)F)c3)nc3cc(-c4c(C)noc4C)ccc32)CC1 (centres unmarked) [Compound 3]
Ratio CBP/BRD4 of ∆Tm (CBP bromodomain [3]): 2.8
